Experimental data: patent US8158628B2, “Sulfonylated 1,2,3,4-tetrahydropyrrolo[1,2-a]pyrazine compounds and their use as pharmaceuticals” (Gruenenthal GmbH, priority 2009, dated 2012)

Legend:
human B1R = target: T1, human B1R (Homo sapiens, UniProt P46663); assay: FLIPR Ca2+ functional assay, B1R antagonism, human B1R in CHO K1 cells; type: cell-based; settings: test substance 10 μM; hB1R CHO K1 cells; agonist Lys-Des-Arg9 bradykinin at EC80; % of maximum achievable inhibition
T1 construct: expressed in transfected cells; host or cells: CHO K1 cells (Chinese hamster ovary), stably transfected
T1 sequence (P46663 1-353): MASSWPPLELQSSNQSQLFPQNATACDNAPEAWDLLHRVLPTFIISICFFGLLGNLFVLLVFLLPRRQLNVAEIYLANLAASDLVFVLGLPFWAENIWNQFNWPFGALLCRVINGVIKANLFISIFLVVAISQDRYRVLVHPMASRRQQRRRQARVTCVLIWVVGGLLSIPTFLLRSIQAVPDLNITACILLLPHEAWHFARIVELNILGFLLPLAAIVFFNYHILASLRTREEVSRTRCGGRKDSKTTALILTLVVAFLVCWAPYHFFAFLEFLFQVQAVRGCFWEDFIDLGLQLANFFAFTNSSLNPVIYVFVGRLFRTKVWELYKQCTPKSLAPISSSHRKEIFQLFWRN
Method in brief: (§1)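 IC50 values come from varied compound concentrations applied 10-20 min before an EC80 agonist challenge, with Des-Arg9 bradykinin for rat and Lys-Des-Arg9 bradykinin for human receptor. Ca2+ influx in Fluo-4-loaded CHO K1 transfectants was measured by FLIPR peak fluorescence. Data are % inhibition vs maximum, n=2-3, N>=2.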

B1R of the rat = target: T2, B1R of the rat (Rattus norvegicus, UniProt P97583); assay: FLIPR Ca2+ functional assay, B1R antagonism, rat B1R in CHO K1 cells; type: cell-based; settings: test substance 10 μM; rB1R CHO K1 cells; agonist Des-Arg9 bradykinin at EC80; % of maximum achievable inhibition
T2 construct: expressed in transfected cells; host or cells: CHO K1 cells (Chinese hamster ovary), stably transfected
T2 sequence (P97583 1-337): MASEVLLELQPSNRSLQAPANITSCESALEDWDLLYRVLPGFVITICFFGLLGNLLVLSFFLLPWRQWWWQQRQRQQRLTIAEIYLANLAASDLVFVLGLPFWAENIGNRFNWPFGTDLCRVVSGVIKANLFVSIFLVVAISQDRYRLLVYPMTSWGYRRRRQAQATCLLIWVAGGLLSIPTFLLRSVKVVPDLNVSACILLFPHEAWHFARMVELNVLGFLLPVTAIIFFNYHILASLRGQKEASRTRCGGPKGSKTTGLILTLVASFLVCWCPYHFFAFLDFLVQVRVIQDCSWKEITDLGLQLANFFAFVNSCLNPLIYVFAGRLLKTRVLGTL
Method in brief: as §1

Structure (SMILES)	inhibition at 10 µM (human B1R) [%]	inhibition at 10 µM (B1R of the rat) [%]
Cc1ccc(S(=O)(=O)N2CCn3cccc3C2CC(=O)NC2CCCc3cc(CNCc4ccccc4)ccc32)cc1Cl (stereo not shown) [Example 111, N-[6-[(Benzylamino)-methyl]-1,2,3,4-tetrahydro-naphthalen-1-yl]-2-[2-[(3-chloro-4-methyl-phenyl)sulfonyl]-1,2,3,4-tetrahydro-pyrrolo[1,2-a]pyrazin-1-yl]-acetamide]	100	103
Cc1ccc(S(=O)(=O)N2CCn3cccc3C2CC(=O)NC2CCc3cc(CN4C5CCCC4CC5)ccc3C2)cc1Cl (stereo not shown) [Example 71, N-[6-(8-Azabicyclo[3.2.1]octan-8-yl-methyl)-1,2,3,4-tetrahydro-naphthalen-2-yl]-2-[2-[(3-chloro-4-methyl-phenyl)sulfonyl]-1,2,3,4-tetrahydro-pyrrolo[1,2-a]pyrazin-1-yl]-acetamide]	99.8	102
COc1ccc2cc(S(=O)(=O)N3CCn4cccc4C3CC(=O)NC3CCc4cc(CN(C)C)ccc4C3)ccc2c1 (stereo not shown) [Example 96, N-[6-(Dimethylaminomethyl)-1,2,3,4-tetrahydro-naphthalen-2-yl]-2-[2-[(6-methoxy-naphthalen-2-yl)sulfonyl]-1,2,3,4-tetrahydro-pyrrolo[1,2-a]pyrazin-1-yl]-acetamide]	99.9	102
CCC(C)NCc1ccc2c(c1)CCC(NC(=O)CC1c3cccn3CCN1S(=O)(=O)c1ccc3cc(OC)ccc3c1)C2 (stereo not shown) [Example 121, 2-[2-[(6-Methoxy-naphthalen-2-yl)sulfonyl]-1,2,3,4-tetrahydro-pyrrolo[1,2-a]pyrazin-1-yl]-N-[6-[(1-methyl-propylamino)-methyl]-1,2,3,4-tetrahydro-naphthalen-2-yl]-acetamide]	99.9	99.5
CCC(C)NCc1ccc2c(c1)CCCC2NC(=O)CC1c2cccn2CCN1S(=O)(=O)c1ccc2cc(OC)ccc2c1 (stereo not shown) [Example 125, 2-[2-[(6-Methoxy-naphthalen-2-yl)sulfonyl]-1,2,3,4-tetrahydro-pyrrolo[1,2-a]pyrazin-1-yl]-N-[6-[(1-methyl-propylamino)-methyl]-1,2,3,4-tetrahydro-naphthalen-1-yl]-acetamide]	99.6	99.1
COc1cc(C)c(S(=O)(=O)N2CCn3cccc3C2COCC(=O)N2CCC(Oc3ccncc3)C2)c(C)c1 (stereo not shown) [Example 38, 2-[[2-[(4-Methoxy-2,6-dimethyl-phenyl)sulfonyl]-1,2,3,4-tetrahydro-pyrrolo[1,2-a]pyrazin-1-yl]-methoxy]-1-(3-pyridin-4-yloxy-pyrrolidin-1-yl)-ethanone]	98.1	104
Cc1ccc(S(=O)(=O)N2CCn3cccc3C2CC(=O)NC2CCCc3cc(CN4CCCc5ccccc54)ccc32)cc1Cl (stereo not shown) [Example 119, 2-[2-[(3-Chloro-4-methyl-phenyl)sulfonyl]-1,2,3,4-tetrahydro-pyrrolo[1,2-a]pyrazin-1-yl]-N-[6-(1,2,3,4-tetrahydro-quinolin-1-yl-methyl)-1,2,3,4-tetrahydro-naphthalen-1-yl]-acetamide]	23.4	62.2
COc1ccc2cc(S(=O)(=O)N3CCn4cccc4C3CC(=O)NC3CCc4cc(CN5CCCCC5)ccc4C3)ccc2c1 (stereo not shown) [Example 8, 2-(2-(6-Methoxynaphthalen-2-ylsulfonyl)-1,2,3,4-tetrahydropyrrolo[1,2-a]pyrazin-1-yl)-N-(6-(piperidin-1-ylmethyl)-1,2,3,4-tetrahydronaphthalen-2-yl)acetamide]	99.9	104
COc1cc(C)c(S(=O)(=O)N2CCn3cccc3C2CC(=O)N2CCC3(CC2)CCN(c2ccncc2)C3)c(C)c1 (stereo not shown) [Example 18, 2-(2-(4-Methoxy-2,6-dimethylphenylsulfonyl)-1,2,3,4-tetrahydro-pyrrolo[1,2-a]pyrazin-1-yl)-1-(2-(pyridin-4-yl)-2,8-diazaspiro[4.5]decan-8-yl)-ethanone]	99.9	94.8
CN(Cc1ccc2c(c1)CCC(NC(=O)CC1c3cccn3CCN1S(=O)(=O)c1cccc(C(F)(F)F)c1)C2)C(C)(C)C (stereo not shown) [Example 116, N-[6-[(tert-Butyl-methyl-amino)-methyl]-1,2,3,4-tetrahydro-naphthalen-2-yl]-2-[2-[[3-(trifluoromethyl)phenyl]sulfonyl]-1,2,3,4-tetrahydro-pyrrolo[1,2-a]pyrazin-1-yl]-acetamide]	99.8	102
Cc1ccc(S(=O)(=O)N2CCn3cccc3C2CC(=O)NC2CCc3cc(CNCc4ccccc4)ccc3C2)cc1Cl (stereo not shown) [Example 51, N-[6-[(Benzylamino)-methyl]-1,2,3,4-tetrahydro-naphthalen-2-yl]-2-[2-[(3-chloro-4-methyl-phenyl)sulfonyl]-1,2,3,4-tetrahydro-pyrrolo[1,2-a]pyrazin-1-yl]-acetamide]	99.5	103

Further lines, results first:

inhibition at 10 µM (human B1R) [%]	inhibition at 10 µM (B1R of the rat) [%]	Structure (SMILES)
99	100	Cc1ccc(S(=O)(=O)N2CCn3cccc3C2CC(=O)NC2CCCc3cc(CN4CCOCC4)ccc32)cc1 (stereo not shown) [Example 54, N-[6-(Morpholin-4-yl-methyl)-1,2,3,4-tetrahydro-naphthalen-1-yl]-2-[2-(p-tolylsulfonyl)-1,2,3,4-tetrahydro-pyrrolo[1,2-a]pyrazin-1-yl]-acetamide]
99.9	98.1	O=C(COCC1c2cccn2CCN1S(=O)(=O)c1ccccc1C(F)(F)F)N1CCC2(CC1)CCN(c1ccncc1)CC2 (stereo not shown) [Example 11, 1-(9-(Pyridin-4-yl)-3,9-diazaspiro[5.5]undecan-3-yl)-2-((2-(2-(trifluoromethyl)phenylsulfonyl)-1,2,3,4-tetrahydropyrrolo[1,2-a]pyrazin-1-yl)methoxy)ethanone]
99.7	91.2	Cc1ccc(S(=O)(=O)N2CCn3cccc3C2CC(=O)NC2CCCc3cc(CN(C)C(C)(C)C)ccc32)cc1 (stereo not shown) [Example 74, N-[6-[(tert-Butyl-methyl-amino)-methyl]-1,2,3,4-tetrahydro-naphthalen-1-yl]-2-[2-(p-tolylsulfonyl)-1,2,3,4-tetrahydro-pyrrolo[1,2-a]pyrazin-1-yl]-acetamide]
100	103	COc1ccc2cc(S(=O)(=O)N3CCn4cccc4C3CC(=O)NCCc3ccc(C4=NCCN4)cc3)ccc2c1 (stereo not shown) [Example 41, N-[2-[4-(4,5-Dihydro-1H-imidazol-2-yl)-phenyl]-ethyl]-2-[2-[(6-methoxy-naphthalen-2-yl)sulfonyl]-1,2,3,4-tetrahydro-pyrrolo[1,2-a]pyrazin-1-yl]-acetamide]
99.1	102	Cc1ccc(S(=O)(=O)N2CCn3cccc3C2CC(=O)NC2CCc3cc(CN4CCN(C)CC4)ccc3C2)cc1 (stereo not shown) [Example 81, N-[6-[(4-Methyl-piperazin-1-yl)-methyl]-1,2,3,4-tetrahydro-naphthalen-2-yl]-2-[2-(p-tolylsulfonyl)-1,2,3,4-tetrahydro-pyrrolo[1,2-a]pyrazin-1-yl]-acetamide]
97.5	103	COc1cc(C)c(S(=O)(=O)N2CCn3cccc3C2COCC(=O)NC2CCN(c3ccncc3)CC2)c(C)c1 (stereo not shown) [Example 36, 2-[[2-[(4-Methoxy-2,6-dimethyl-phenyl)sulfonyl]-1,2,3,4-tetrahydro-pyrrolo[1,2-a]pyrazin-1-yl]-methoxy]-N-(1-pyridin-4-yl-piperidin-4-yl)-acetamide]
99.8	103	COc1ccc2cc(S(=O)(=O)N3CCn4cccc4C3CC(=O)NC3CCCc4cc(CN5CCCCC5)ccc43)ccc2c1 (stereo not shown) [Example 128, 2-[2-[(6-Methoxy-naphthalen-2-yl)sulfonyl]-1,2,3,4-tetrahydro-pyrrolo[1,2-a]pyrazin-1-yl]-N-[6-(piperidin-1-yl-methyl)-1,2,3,4-tetrahydro-naphthalen-1-yl]-acetamide]
99.7	101	O=C(CC1c2cccn2CCN1S(=O)(=O)c1cccc(C(F)(F)F)c1)NC1CCc2cc(CN3CCOCC3)ccc2C1 (stereo not shown) [Example 67, N-[6-(Morpholin-4-yl-methyl)-1,2,3,4-tetrahydro-naphthalen-2-yl]-2-[2-[[3-(trifluoromethyl)phenyl]sulfonyl]-1,2,3,4-tetrahydro-pyrrolo[1,2-a]pyrazin-1-yl]-acetamide]
100	98.8	COc1ccc2cc(S(=O)(=O)N3CCn4cccc4C3CC(=O)NC3CCCc4cc(CN5CCN(C)CC5)ccc43)ccc2c1 (stereo not shown) [Example 117, 2-[2-[(6-Methoxy-naphthalen-2-yl)sulfonyl]-1,2,3,4-tetrahydro-pyrrolo[1,2-a]pyrazin-1-yl]-N-[6-[(4-methyl-piperazin-1-yl)-methyl]-1,2,3,4-tetrahydro-naphthalen-1-yl]-acetamide]
